# Residues, ends and D or L forms follow the SMILES beside them.
# Key:
# human NMUR1 receptor = target: T1, human NMUR1 receptor (Homo sapiens, UniProt Q9HB89); assay: IP1 Gq HTRF assay, activation of human NMUR1 in buffer; assay type: cell-based; details: CHO-K1 cells expressing human NMUR1, stimulation buffer with 0.1% BSA; read-out: EC50 (hNMUR1) buffer
# T1 construct: expressed in transfected cells; host or cells: CHO-K1
# T1 sequence (Q9HB89 1-426): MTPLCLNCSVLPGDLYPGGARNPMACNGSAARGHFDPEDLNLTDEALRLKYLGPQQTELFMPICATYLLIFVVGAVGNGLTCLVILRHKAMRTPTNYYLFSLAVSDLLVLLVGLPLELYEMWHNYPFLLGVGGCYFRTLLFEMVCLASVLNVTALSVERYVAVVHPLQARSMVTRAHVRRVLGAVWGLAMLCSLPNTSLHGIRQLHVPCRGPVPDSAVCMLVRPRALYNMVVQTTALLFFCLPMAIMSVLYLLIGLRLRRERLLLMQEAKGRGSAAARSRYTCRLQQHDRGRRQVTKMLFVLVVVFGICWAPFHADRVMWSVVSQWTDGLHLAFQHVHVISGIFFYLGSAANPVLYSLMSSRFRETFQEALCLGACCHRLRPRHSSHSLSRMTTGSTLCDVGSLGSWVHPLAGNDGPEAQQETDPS
# Summary of the method: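 IP-One HTRF competition (665/620 nm ratio) read after 1 h agonist exposure at 37 °C in pH 7.4 HEPES/HBSS stimulation buffer containing 50 mM LiCl, 0.1% BSA, 1% DMSO. Cells: CHO-K1 stably expressing human NMUR2 or NMUR1. EC50 by 4-parameter nonlinear regression of 8-point curves.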
# physchem = assay type: physicochemical
# Procedure: Example 6: Solubility Determination
# Peptides (as TFA-salts) were weighed out in a filter unit (Mini-UniPrep Syringeless Filter 0.45 μm, Whatman PVDF), and 0.1 M phosphate buffer at pH 6 to 8 was added to achieve 10 mg/mL final peptide concentration. The peptides were dissolved by shaking the filter units horizontally at 350 rpm for 2 hours at room temperature. Samples were then filtered to remove any insoluble particles. Controls were prepared by weighing out the corresponding peptide solid material and dissolving it in an appropriate vehicle (e.g. buffer or DMSO) to a final concentration of 1 mg/mL. Both, the control and sample were analyzed by reversed phase chromatography. The area under the peak of the sample was compared to the control and the solubility was calculated based on that ratio. The pH was measured and recorded for each sample.
Compound,EC50 (human NMUR1 receptor),solubility at 2 h (physchem; pH 7.2),solubility at 2 h (physchem; pH 7.3)
"CCCC[C@H](NC(=O)[C@H](CC(C)C)N(C)C(=O)[C@H](Cc1ccccc1)NC(=O)[C@H](Cc1ccc(O)cc1)NC(=O)CN1CCN(CCNC(=O)CN(C)C(=O)CN(C)C(=O)CN(C)C(=O)CN(C)C(=O)CN(C)C(=O)CN(C)C(=O)CN(C)C(=O)CN(C)C(=O)CN(C)C(=O)CN(C)C(=O)CN(C)C(=O)CN(C)C(=O)CC[C@H](NC(=O)CC[C@H](NC(=O)CC[C@H](NC(=O)CCCCCCCCCCCCCCCCCCC(=O)O)C(=O)O)C(=O)O)C(=O)O)CC1)C(=O)N[C@@H](CCCNC(=N)N)C(=O)N1CCC[C@H]1C(=O)N[C@@H](CCCNC(=N)N)C(=O)NCC(N)=O [Compound 6, C20DA-gGlu3-Sar12-AEPipAc-Tyr-Phe-NMeLeu-Nle-Arg-Pro-Arg-Gly-NH2]",120 nM,4600 µg/mL,
"CCCC[C@H](NC(=O)[C@H](CC(C)C)N(C)C(=O)[C@H](Cc1ccccc1)NC(=O)[C@H](Cc1ccc(O)cc1)NC(=O)CN1CCN(CCNC(=O)CN(C)C(=O)CN(C)C(=O)CN(C)C(=O)CN(C)C(=O)CN(C)C(=O)CN(C)C(=O)CN(C)C(=O)CN(C)C(=O)CN(C)C(=O)CN(C)C(=O)CN(C)C(=O)CN(C)C(=O)CN(C)C(=O)CN(C)C(=O)CN(C)C(=O)CC[C@H](NC(=O)CC[C@H](NC(=O)CC[C@H](NC(=O)CCCCCCCCCCCCCCCCC(=O)O)C(=O)O)C(=O)O)C(=O)O)CC1)C(=O)N[C@@H](CCCN)C(=O)N(C)[C@@H](C)C(=O)N[C@@H](CCCNC(=N)N)C(=O)NCC(N)=O [Compound 22, C18DA-gGlu3-Sar15-AEPipAc-Tyr-Phe-NMeLeu-Nle-Orn-NMeAla-Arg-Gly-NH2] (HELM PEPTIDE1{[O=C(O)CCCCCCCCCCCCCCCCC(=O)[*:2]].[gGlu].[gGlu].[gGlu].[Sar].[Sar].[Sar].[Sar].[Sar].[Sar].[Sar].[Sar].[Sar].[Sar].[Sar].[Sar].[Sar].[Sar].[Sar].[O=C(CN1CCN(CCN[*:1])CC1)[*:2]].Y.F.[meL].[Nle].[Orn].[meA].R.G.[am]}$$$$V2.0)",> 1000 nM,,8600 µg/mL
"CCCC[C@H](NC(=O)[C@H](CC(C)C)N(C)C(=O)[C@H](Cc1ccccc1)NC(=O)[C@H](Cc1ccc(O)cc1)NC(=O)CN1CCN(CCNC(=O)CN(C)C(=O)CN(C)C(=O)CN(C)C(=O)CN(C)C(=O)CN(C)C(=O)CN(C)C(=O)CN(C)C(=O)CN(C)C(=O)CN(C)C(=O)CC[C@H](NC(=O)CC[C@H](NC(=O)CC[C@H](NC(=O)CCCCCCCCCCCCCCCCCCC(=O)O)C(=O)O)C(=O)O)C(=O)O)CC1)C(=O)N[C@@H](CCCNC(=N)N)C(=O)N1CCC[C@H]1C(=O)N[C@@H](CCCNC(=N)N)C(=O)NCC(N)=O [Compound 65, C20DA-gGlu3-Sar9-AEPipAc-Tyr-Phe-NMeLeu-Nle-Arg-Pro-Arg-Gly-NH2] (HELM PEPTIDE1{[O=C(O)CCCCCCCCCCCCCCCCCCC(=O)[*:2]].[gGlu].[gGlu].[gGlu].[Sar].[Sar].[Sar].[Sar].[Sar].[Sar].[Sar].[Sar].[Sar].[O=C(CN1CCN(CCN[*:1])CC1)[*:2]].Y.F.[meL].[Nle].R.P.R.G.[am]}$$$$V2.0)",130 nM,,
"CCCC[C@H](NC(=O)[C@H](CC(C)C)N(C)C(=O)[C@H](Cc1ccccc1)NC(=O)[C@H](Cc1ccc(O)cc1)NC(=O)CN1CCN(CCNC(=O)CN(C)C(=O)CN(C)C(=O)CN(C)C(=O)CN(C)C(=O)CN(C)C(=O)CN(C)C(=O)CN(C)C(=O)CN(C)C(=O)CN(C)C(=O)CN(C)C(=O)CN(C)C(=O)CN(C)C(=O)CN(C)C(=O)CN(C)C(=O)CN(C)C(=O)CC[C@H](NC(=O)CC[C@H](NC(=O)CC[C@H](NC(=O)CCCCCCCCCCCCCCCCCCC(=O)O)C(=O)O)C(=O)O)C(=O)O)CC1)C(=O)N[C@@H](CCCNC(=N)N)C(=O)N1CCC[C@H]1C(=O)N[C@@H](CCCNC(=N)N)C(=O)NCC(N)=O [Compound 9, C20DA-gGlu3-Sar15-AEPipAc-Tyr-Phe-NMeLeu-Nle-Arg-Pro-Arg-Gly-NH2] (HELM PEPTIDE1{[O=C(O)CCCCCCCCCCCCCCCCCCC(=O)[*:2]].[gGlu].[gGlu].[gGlu].[Sar].[Sar].[Sar].[Sar].[Sar].[Sar].[Sar].[Sar].[Sar].[Sar].[Sar].[Sar].[Sar].[Sar].[Sar].[O=C(CN1CCN(CCN[*:1])CC1)[*:2]].Y.F.[meL].[Nle].R.P.R.G.[am]}$$$$V2.0)",220 nM,,
"CCCC[C@H](NC(=O)[C@H](CC(C)C)N(C)C(=O)[C@H](Cc1ccccc1)NC(=O)[C@H](Cc1ccc(O)cc1)NC(=O)CN1CCN(CCNC(=O)CN(C)C(=O)CN(C)C(=O)CN(C)C(=O)CN(C)C(=O)CN(C)C(=O)CN(C)C(=O)CN(C)C(=O)CN(C)C(=O)CN(C)C(=O)CN(C)C(=O)CN(C)C(=O)CN(C)C(=O)CN(C)C(=O)CN(C)C(=O)CN(C)C(=O)CC[C@H](NC(=O)CC[C@H](NC(=O)CC[C@H](NC(=O)CCCCCCCCCCCCCCCCCCC(=O)O)C(=O)O)C(=O)O)C(=O)O)CC1)C(=O)N[C@@H](CCCNC(=N)N)C(=O)N(C)[C@@H](C)C(=O)N[C@@H](CCCNC(=N)N)C(=O)NCC(N)=O [Compound 10, C20DA-gGlu3-Sar15-AEPipAc-Tyr-Phe-NMeLeu-Nle-Arg-NMeAla-Arg-Gly-NH2] (HELM PEPTIDE1{[O=C(O)CCCCCCCCCCCCCCCCCCC(=O)[*:2]].[gGlu].[gGlu].[gGlu].[Sar].[Sar].[Sar].[Sar].[Sar].[Sar].[Sar].[Sar].[Sar].[Sar].[Sar].[Sar].[Sar].[Sar].[Sar].[O=C(CN1CCN(CCN[*:1])CC1)[*:2]].Y.F.[meL].[Nle].R.[meA].R.G.[am]}$$$$V2.0)",720 nM,,
"CCCC[C@H](NC(=O)[C@H](CC(C)C)N(C)C(=O)[C@H](Cc1ccccc1)NC(=O)[C@H](Cc1ccc(O)cc1)NC(=O)CN1CCN(CCNC(=O)CN(C)C(=O)CN(C)C(=O)CN(C)C(=O)CN(C)C(=O)CN(C)C(=O)CN(C)C(=O)CN(C)C(=O)CN(C)C(=O)CN(C)C(=O)CN(C)C(=O)CN(C)C(=O)CN(C)C(=O)CN(C)C(=O)CN(C)C(=O)CN(C)C(=O)CC[C@H](NC(=O)CC[C@H](NC(=O)CC[C@H](NC(=O)CCCCCCCCCCCCCCCCC(=O)O)C(=O)O)C(=O)O)C(=O)O)CC1)C(=O)N[C@@H](CCCNC(=N)N)C(=O)N(C)[C@@H](C)C(=O)N[C@@H](CCCNC(=N)N)C(=O)NCC(N)=O [Compound 11, C18DA-gGlu3-Sar15-AEPipAc-Tyr-Phe-NMeLeu-Nle-Arg-NMeAla-Arg-Gly-NH2] (HELM PEPTIDE1{[O=C(O)CCCCCCCCCCCCCCCCC(=O)[*:2]].[gGlu].[gGlu].[gGlu].[Sar].[Sar].[Sar].[Sar].[Sar].[Sar].[Sar].[Sar].[Sar].[Sar].[Sar].[Sar].[Sar].[Sar].[Sar].[O=C(CN1CCN(CCN[*:1])CC1)[*:2]].Y.F.[meL].[Nle].R.[meA].R.G.[am]}$$$$V2.0)",1100 nM,,
"CCCC[C@H](NC(=O)[C@H](CC(C)C)N(C)C(=O)[C@H](Cc1ccccc1)NC(=O)[C@H](Cc1ccc(O)cc1)NC(=O)CN1CCN(CCNC(=O)CN(C)C(=O)CN(C)C(=O)CN(C)C(=O)CN(C)C(=O)CN(C)C(=O)CN(C)C(=O)CN(C)C(=O)CN(C)C(=O)CN(C)C(=O)CN(C)C(=O)CN(C)C(=O)CN(C)C(=O)CC[C@H](NC(=O)CC[C@H](NC(=O)CC[C@H](NC(=O)CCCCCCCCCCCCCCCCC(=O)O)C(=O)O)C(=O)O)C(=O)O)CC1)C(=O)N[C@@H](CCCNC(=N)N)C(=O)N(C)[C@@H](C)C(=O)N[C@@H](CCCNC(=N)N)C(=O)NCC(N)=O [Compound 12, C18DA-gGlu3-Sar12-AEPipAc-Tyr-Phe-NMeLeu-Nle-Arg-NMeAla-Arg-Gly-NH2]",1000 nM,,
